Experimental data from ChEMBL document CHEMBL1201862, “PubChem BioAssay data set” (2004).
Activity calls are given as the source filed them.

Experiments:
[1] = biological target: T1, Sentrin-specific protease 6 (Homo sapiens, UniProt Q9GZR1); assay: inhibition of human SENP6 catalytic domain – biochemical, luminescence, set 2, SAR follow-up (AID 588598); assay type: functional
T1 sequence (Q9GZR1 whole entry): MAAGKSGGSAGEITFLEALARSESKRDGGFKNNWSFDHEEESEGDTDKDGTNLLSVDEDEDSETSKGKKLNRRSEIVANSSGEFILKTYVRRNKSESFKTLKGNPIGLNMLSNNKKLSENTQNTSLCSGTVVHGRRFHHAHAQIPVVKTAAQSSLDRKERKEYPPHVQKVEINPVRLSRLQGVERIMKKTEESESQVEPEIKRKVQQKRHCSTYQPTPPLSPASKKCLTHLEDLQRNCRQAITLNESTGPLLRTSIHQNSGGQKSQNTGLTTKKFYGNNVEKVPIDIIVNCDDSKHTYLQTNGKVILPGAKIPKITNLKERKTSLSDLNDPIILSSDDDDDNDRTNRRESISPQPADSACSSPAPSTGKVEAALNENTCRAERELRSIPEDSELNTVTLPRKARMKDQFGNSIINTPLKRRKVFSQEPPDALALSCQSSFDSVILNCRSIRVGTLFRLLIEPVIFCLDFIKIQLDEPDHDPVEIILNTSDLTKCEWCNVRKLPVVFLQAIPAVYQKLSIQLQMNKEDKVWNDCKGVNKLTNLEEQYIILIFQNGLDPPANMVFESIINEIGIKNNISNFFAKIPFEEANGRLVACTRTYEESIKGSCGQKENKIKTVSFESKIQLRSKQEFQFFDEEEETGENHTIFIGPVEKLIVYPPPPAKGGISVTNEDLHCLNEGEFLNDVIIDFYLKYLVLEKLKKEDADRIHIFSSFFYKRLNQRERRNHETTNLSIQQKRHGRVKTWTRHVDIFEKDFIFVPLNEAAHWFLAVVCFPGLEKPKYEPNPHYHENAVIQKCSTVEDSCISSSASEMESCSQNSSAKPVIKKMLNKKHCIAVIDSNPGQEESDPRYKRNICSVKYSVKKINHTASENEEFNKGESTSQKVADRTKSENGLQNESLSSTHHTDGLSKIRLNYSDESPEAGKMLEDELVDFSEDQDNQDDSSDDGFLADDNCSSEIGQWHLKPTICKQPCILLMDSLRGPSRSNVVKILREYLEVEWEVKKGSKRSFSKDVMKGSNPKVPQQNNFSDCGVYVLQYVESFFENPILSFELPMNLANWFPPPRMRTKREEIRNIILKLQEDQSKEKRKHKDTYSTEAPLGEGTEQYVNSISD

[2] = biological target: T2, Sentrin-specific protease 8 (Homo sapiens, UniProt Q96LD8); assay: inhibition of sentrin protease 8 – biochemical, luminescence, set 2, SAR follow-up (AID 588601); assay type: functional
T2 sequence (Q96LD8 whole entry): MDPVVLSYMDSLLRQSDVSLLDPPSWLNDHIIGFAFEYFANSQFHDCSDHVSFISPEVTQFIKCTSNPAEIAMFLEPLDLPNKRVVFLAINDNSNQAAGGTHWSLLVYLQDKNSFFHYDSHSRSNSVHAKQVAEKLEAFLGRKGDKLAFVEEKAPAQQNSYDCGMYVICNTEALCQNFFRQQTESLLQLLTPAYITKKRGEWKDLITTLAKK

[3] = general cell-killing toxicity readout – plate reader, dry powder samples, cytotoxicity control for PAX8 inhibitor project, dose response (AID 743021); assay type: functional, cell-based
BJ [4] = assay: growth inhibition of engineered Ras-driven BJ cells – cell-based, alamar blue fluorescence, cherrypicked samples, dose response (AID 2631); assay type: functional; conditions: Homo sapiens;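 also: confirmatory dose-response assay in RAS-dependent BJ fibroblasts engineered with TERT, LT and ST, with cytotoxicity read by fluorescence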
BJ [5] = assay: cells; assay type: functional, cell-based; conditions: Homo sapiens
BJ [6] = assay: BJ-TERT-LT-ST fibroblast viability loss – cell-based, RAS-independent, luminescence, dose response (AID 1935); assay type: functional; conditions: Homo sapiens;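 also: BJ fibroblasts immortalized with TERT plus LT and ST oncogenes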
[7] = biological target: DNA damage-inducible transcript 3 protein (Mus musculus, UniProt P35639); assay type: functional, Cricetulus griseus
DNA damage-inducible transcript 3 protein, sequence (P35639 whole entry): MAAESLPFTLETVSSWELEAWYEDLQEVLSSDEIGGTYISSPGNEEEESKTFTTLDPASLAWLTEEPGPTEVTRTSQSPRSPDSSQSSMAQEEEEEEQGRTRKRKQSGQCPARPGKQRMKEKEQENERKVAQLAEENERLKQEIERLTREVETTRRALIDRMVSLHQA

[8] = Intein inhibitors as potential Tuberculosis drugs, a cytotoxicity screen. [Related pubchem assays (depositor defined):AID2221, AID2223, AID434968, AID435010, AID449749, AID449750, AID489010]; assay type: functional
[9] = viability of PTEN-deleted HCT116 cells – cell-based, HCT116 PTEN knockout, dose response (AID 1047); assay type: functional;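 also: HCT116 colon tumor cells with PTEN knocked out; cells exposed to compound for 60 hours before readout; potency for loss of cell viability measured by luminescence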
Paired box protein Pax-8 = Paired box protein Pax-8 (Homo sapiens, UniProt Q06710); assay: PAX8 transcriptional activity inhibition in RMG-I – RMG-I cells, luciferase, cherry-pick, dose response (AID 687027); assay type: functional, cell-based;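 also: luciferase reporter driven by Pax8 target thyroperoxidase promoter measured by SteadyGlo luminescence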
Paired box protein Pax-8, sequence (Q06710 whole entry): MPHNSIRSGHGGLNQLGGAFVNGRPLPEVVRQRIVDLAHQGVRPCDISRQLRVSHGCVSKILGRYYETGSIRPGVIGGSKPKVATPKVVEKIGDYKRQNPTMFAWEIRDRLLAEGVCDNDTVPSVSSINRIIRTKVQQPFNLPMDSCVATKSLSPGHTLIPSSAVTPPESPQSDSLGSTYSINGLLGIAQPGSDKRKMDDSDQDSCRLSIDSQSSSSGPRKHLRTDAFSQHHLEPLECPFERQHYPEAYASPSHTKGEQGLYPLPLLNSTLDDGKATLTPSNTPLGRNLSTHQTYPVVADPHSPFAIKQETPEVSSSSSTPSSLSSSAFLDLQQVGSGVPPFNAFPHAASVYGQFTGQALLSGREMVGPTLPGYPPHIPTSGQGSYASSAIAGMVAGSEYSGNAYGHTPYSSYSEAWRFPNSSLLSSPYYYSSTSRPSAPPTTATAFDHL

[10] = DRD fibroblast viability loss – cell-based, non-viral oncogenic, luminescence, dose response (AID 1934); assay type: functional; conditions: Homo sapiens
[11] = biological target: T3, RNA-binding protein pos-1 (Caenorhabditis elegans, UniProt G5EF15); assay: disruptors of C. elegans POS-1 RNA interaction – biochemical, fluorescence polarization, dose response (AID 1964);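 also: purified POS-1 fused to maltose binding protein made in E. coli; potency of compounds blocking POS-1 binding to fluorescent RNA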
T3 sequence (G5EF15 whole entry): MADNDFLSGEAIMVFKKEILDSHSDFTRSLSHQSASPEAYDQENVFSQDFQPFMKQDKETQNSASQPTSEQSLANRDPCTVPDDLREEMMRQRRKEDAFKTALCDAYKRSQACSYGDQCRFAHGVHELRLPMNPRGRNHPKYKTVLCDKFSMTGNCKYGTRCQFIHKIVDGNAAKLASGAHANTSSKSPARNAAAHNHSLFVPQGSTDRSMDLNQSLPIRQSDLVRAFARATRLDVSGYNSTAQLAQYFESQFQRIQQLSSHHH

Vero = assay: viability of Vero cells under compound – cytotoxicity control for flavivirus capping enzyme inhibitors (AID 588742); assay type: functional; conditions: Chlorocebus sabaeus
Genome polyprotein = Genome polyprotein (dengue virus type 2, UniProt P29990); assay: flavivirus cap methylation enzyme inhibition – biochemical, confirmation dose response, primary screen (AID 588689); assay type: functional
Genome polyprotein, sequence (P29990 2492-3391 limits assumed): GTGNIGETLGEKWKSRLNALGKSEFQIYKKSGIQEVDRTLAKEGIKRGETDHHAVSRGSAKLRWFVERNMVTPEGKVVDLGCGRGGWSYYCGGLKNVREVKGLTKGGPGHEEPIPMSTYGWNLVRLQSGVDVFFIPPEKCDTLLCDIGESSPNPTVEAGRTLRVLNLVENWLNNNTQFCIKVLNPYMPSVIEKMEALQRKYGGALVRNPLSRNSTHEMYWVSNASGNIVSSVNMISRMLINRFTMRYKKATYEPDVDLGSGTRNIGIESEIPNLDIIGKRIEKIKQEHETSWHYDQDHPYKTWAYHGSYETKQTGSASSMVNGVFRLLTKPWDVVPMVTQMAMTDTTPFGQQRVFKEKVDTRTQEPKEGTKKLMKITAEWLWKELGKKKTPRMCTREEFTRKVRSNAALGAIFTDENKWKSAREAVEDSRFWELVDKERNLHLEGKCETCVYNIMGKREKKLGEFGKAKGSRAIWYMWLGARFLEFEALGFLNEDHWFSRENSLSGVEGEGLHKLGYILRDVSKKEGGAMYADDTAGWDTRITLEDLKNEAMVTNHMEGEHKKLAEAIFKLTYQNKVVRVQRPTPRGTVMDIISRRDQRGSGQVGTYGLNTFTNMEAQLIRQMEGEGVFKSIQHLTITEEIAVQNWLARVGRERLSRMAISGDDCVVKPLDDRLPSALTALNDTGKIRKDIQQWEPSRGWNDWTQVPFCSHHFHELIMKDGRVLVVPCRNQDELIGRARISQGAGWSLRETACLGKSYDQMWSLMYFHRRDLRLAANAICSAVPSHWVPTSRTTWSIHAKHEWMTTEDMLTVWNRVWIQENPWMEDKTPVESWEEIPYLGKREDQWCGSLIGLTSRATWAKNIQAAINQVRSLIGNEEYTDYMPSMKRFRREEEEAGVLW

[12] = biological target: Cystic fibrosis transmembrane conductance regulator/Golgi-associated PDZ and coiled-coil motif-containing protein (Homo sapiens, UniProt P13569+Q9HD26); assay: potency against CAL PDZ-peptide interaction – biochemical, fluorescence polarization, Cerulean-tagged CAL PDZ, cherry-picks, dose response (AID 504773)
Cystic fibrosis transmembrane conductance regulator/Golgi-associated PDZ and coiled-coil motif-containing protein, sequence (P13569 whole entry, other chains not shown): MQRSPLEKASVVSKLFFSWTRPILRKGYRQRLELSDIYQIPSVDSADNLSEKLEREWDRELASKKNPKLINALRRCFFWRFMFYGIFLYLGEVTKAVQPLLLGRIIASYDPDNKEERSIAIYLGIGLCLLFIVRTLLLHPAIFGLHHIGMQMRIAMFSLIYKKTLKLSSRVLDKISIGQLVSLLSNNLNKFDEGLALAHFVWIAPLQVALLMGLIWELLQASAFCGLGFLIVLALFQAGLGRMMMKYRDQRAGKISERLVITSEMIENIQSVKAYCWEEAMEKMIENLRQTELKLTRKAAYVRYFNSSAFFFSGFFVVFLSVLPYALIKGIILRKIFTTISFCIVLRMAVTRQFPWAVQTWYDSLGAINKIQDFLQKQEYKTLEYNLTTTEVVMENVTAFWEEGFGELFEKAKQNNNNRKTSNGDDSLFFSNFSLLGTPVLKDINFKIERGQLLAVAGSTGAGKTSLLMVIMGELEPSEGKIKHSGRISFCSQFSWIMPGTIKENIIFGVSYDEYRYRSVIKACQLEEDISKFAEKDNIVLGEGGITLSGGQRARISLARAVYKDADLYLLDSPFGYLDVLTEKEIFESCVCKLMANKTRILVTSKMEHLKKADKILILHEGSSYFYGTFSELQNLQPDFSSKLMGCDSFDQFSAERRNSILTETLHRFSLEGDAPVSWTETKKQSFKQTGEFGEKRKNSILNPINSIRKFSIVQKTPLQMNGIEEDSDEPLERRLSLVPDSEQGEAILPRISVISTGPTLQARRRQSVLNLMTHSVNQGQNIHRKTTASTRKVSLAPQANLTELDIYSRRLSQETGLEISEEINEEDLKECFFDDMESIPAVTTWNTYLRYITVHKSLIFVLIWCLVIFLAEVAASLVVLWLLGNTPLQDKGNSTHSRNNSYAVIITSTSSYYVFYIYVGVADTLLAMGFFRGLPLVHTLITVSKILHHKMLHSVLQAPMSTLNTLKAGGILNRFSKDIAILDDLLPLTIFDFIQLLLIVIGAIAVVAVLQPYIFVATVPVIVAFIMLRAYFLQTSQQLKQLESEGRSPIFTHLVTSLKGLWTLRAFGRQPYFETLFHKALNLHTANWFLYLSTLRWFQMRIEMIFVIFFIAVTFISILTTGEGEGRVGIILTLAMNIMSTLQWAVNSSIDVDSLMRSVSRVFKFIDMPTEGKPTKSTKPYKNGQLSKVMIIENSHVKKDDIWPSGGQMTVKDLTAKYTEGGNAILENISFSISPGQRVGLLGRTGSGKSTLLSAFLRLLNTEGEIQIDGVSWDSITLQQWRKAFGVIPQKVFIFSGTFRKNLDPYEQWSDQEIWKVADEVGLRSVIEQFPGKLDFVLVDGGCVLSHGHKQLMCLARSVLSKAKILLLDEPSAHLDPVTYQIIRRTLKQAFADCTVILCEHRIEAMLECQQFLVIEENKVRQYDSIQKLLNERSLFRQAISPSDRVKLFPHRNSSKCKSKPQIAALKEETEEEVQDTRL

[13] = biological target: T2, Sentrin-specific protease 8; assay type: functional
Nonstructural protein 1 = Nonstructural protein 1 (Influenza A virus, UniProt Q194T2); assay type: functional, Influenza A virus (A/California/07/2009(H1N1))
Nonstructural protein 1, sequence (Q194T2 whole entry): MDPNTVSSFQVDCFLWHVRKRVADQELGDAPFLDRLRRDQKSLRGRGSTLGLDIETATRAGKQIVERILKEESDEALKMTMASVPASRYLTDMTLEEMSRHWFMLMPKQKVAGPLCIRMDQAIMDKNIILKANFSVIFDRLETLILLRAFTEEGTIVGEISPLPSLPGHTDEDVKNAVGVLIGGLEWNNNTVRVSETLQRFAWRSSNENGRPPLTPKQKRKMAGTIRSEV

In the case of `Oc1ccccc1/C=C/c1noc(-c2ccccc2O)n1`, the IC50 [1] is reported as 62.4 µM (active) and the IC50 [2] is reported as 43 µM (active).
With `Cc1nn(-c2ccccc2)c(Cl)c1CN(C(=O)CCl)c1ccc(Cl)cc1` the AC50 [3] was 6.9 µM (active), the EC50 (BJ [4]) was 0.515 µM (active) and the EC50 (BJ [5]) was 2.82 µM (inconclusive). For the same compound, the EC50 (BJ [6]) was 3.36 µM (inconclusive), the “Absolute IC50 (CHOP)” value [7] was 10 µM and the CC50 [8] was 2.06 µM (active). For the same compound, the EC50 [9] was 4.07 µM (active), the AC50 (Paired box protein Pax-8) was 3.19 µM (active) and the EC50 [10] was 1.92 µM (active).
For `O=C(O)CSc1cc(NS(=O)(=O)c2ccc(Cl)cc2)c2ccccc2c1O`, the EC50 [11] was 36.8 µM (active), the CC50 (Vero) was 33.2 µM (active) and the IC50 (Genome polyprotein) was 7.15 µM (active). The AC50 [12] was 30 µM (active).
In the case of `COc1ccccc1N1C(=O)Cc2ccccc2C1=O`, the IC50 [13] is reported as 2.04 µM (active).
With `Cc1cccc(N=Nc2ccc(N(C)C)cc2)c1` the IC50 (Nonstructural protein 1) was 31.6 µM (active).
